Source: the supplement of paper PMC10307832

Key:
Test in all cases: relative viability (nuclei count vs DMSO), 5 days (fraction); higher = more cells survive
[1] = compound: C1=CC=C(C(=C1)C2=CC=C(C=C2)C3=CSC4=C3C(=C(C(=O)N4)C#N)O)O + CCNC(=O)c1noc(-c2cc(C(C)C)c(O)cc2O)c1-c1ccc(CN2CCOCC2)cc1 [Luminespib] (partner 0.01 µM)
Outline: (§1)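 Relative viability is defined as nuclei in treated wells over nuclei in vehicle wells. Duplicate plates were run and medians reported. Lung cancer cell lines in 1536-well plates were dosed by pin tool one day after seeding, with one drug or with a fixed anchor-drug dose plus five library-drug doses (not always all listed) in √10 steps, and nuclei were counted after 5 days.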

[2] = compound: C1=CC=C(C(=C1)C2=CC=C(C=C2)C3=CSC4=C3C(=C(C(=O)N4)C#N)O)O + C[C@@H](Oc1cc(-c2cnn(C3CCNCC3)c2)cnc1N)c1c(Cl)ccc(F)c1Cl [Crizotinib] (partner 1 µM)
Outline: as §1

TGX 221 + OSI-027 = compound: CC1=CN2C(=O)C=C(N=C2C(=C1)C(C)NC3=CC=CC=C3)N4CCOCC4 [TGX 221] + COc1cccc2cc(-c3nc([C@H]4CC[C@H](C(=O)O)CC4)n4ncnc(N)c34)[nH]c12 [OSI-027] (partner 0.5 µM)
Outline: as §1

[3] = compound: O=C(CCCCCCNC(=O)c1cnc(N(c2ccccc2)c2ccccc2)nc1)NO [Ricolinostat] + O=C(CCCCCCC(=O)Nc1ccccc1)NO [Vorinostat] (partner 1 µM)
Outline: as §1

Cell Line	relative viability ([1]; first compound 0.08 µM)	relative viability ([1]; first compound 0.253 µM)	relative viability ([1]; first compound 0.8 µM)	relative viability ([1]; first compound 2.53 µM)	relative viability ([1]; first compound 8 µM)	relative viability ([2]; first compound 0.08 µM)	relative viability ([2]; first compound 0.253 µM)	relative viability ([2]; first compound 0.8 µM)	relative viability ([2]; first compound 2.53 µM)	relative viability ([2]; first compound 8 µM)	relative viability (TGX 221 + OSI-027; first compound 0.08 µM)	relative viability (TGX 221 + OSI-027; first compound 0.253 µM)	relative viability (TGX 221 + OSI-027; first compound 0.8 µM)	relative viability (TGX 221 + OSI-027; first compound 2.53 µM)	relative viability (TGX 221 + OSI-027; first compound 8 µM)	relative viability ([3]; first compound 0.08 µM)	relative viability ([3]; first compound 0.253 µM)	relative viability ([3]; first compound 0.8 µM)	relative viability ([3]; first compound 2.53 µM)
H3255	0.968	1.02	0.713	0.852	0.895	0.806	1.01	0.723	0.873	0.815	0.535	0.593	0.506	0.539	0.571	0.735	1.09	0.672	0.591
NCI-H2023	0.59	0.752	0.767	0.956	0.643	0.546	0.759	0.607	0.701	0.538	0.324	0.328	0.441	0.322	0.275	0.511	0.544	0.47	0.369
NCI-H1944	0.839	0.736	0.752	0.777	0.724	1.08	1.19	1.07	1.23	1.04	0.377	0.39	0.397	0.409	0.388	0.493	0.539	0.488	0.422
LOU-NH91	0.439	0.41	0.304	0.364	0.33	0.718	0.772	0.792	0.667	0.704	0.711	0.72	0.727	0.745	0.701	–	0.955	0.782	0.755
NCI-H2347	0.354	0.404	0.405	0.37	0.492	0.717	0.807	0.558	0.658	0.687	0.463	0.321	0.376	0.29	0.296	0.449	0.567	0.55	0.469
CAL-12T	0.296	0.565	0.362	0.585	0.264	–	0.789	0.441	0.739	0.485	0.604	0.471	0.821	0.486	0.567	0.801	0.524	0.698	0.379
RERF-LC-KJ	1.34	1.37	1.44	1.17	0.843	0.875	0.885	0.858	0.86	0.763	0.567	0.598	0.593	0.574	0.534	0.583	0.657	0.639	0.434
HCC-44	–	1.55	0.993	1.12	0.822	0.845	0.833	0.754	0.901	0.625	–	0.417	0.51	0.543	0.41	1.16	0.99	1.06	1.06
NCI-H650	0.778	0.898	0.67	0.902	0.78	0.713	1.05	0.633	0.703	0.719	0.519	0.515	0.445	0.527	0.504	0.355	0.434	0.367	0.296
